Results taken from patent publication US20080161389A1, “METHOD OF TREATING OCULAR HYPERTENSION AND INTESTINAL DISORDERS BY USING DIANHYDROHEXITE MONONITRATE DERIVATIVES” (LACER, S.A., priority 2006, published 2008).

What was measured:
[1] = tested on: Alfa-Chymotrypsin-Induced Glaucoma; test: Intraocular pressure in alfa-chymotrypsin-induced glaucoma; format: in vivo, rabbits; settings: for intraocular pressure 0 hr: 0 h after 3 drops instillation; for intraocular pressure 0 hr / intraocular pressure 1 hr / intraocular pressure 2 hr: rabbits with alpha-chymotrypsin-induced glaucoma; for reduction of intraocular pressure (in words): 0.05%, similar to conventional compound at 10-fold lower concentration; for intraocular pressure 1 hr: 1 h after 3 drops instillation; for intraocular pressure 2 hr: 2 h after 3 drops instillation
Procedure: The method used was that described by Gabriele Campana, Claudio Bucolo, Giovanna Murari and Santi Spampinato in Pharmacol. Exp Therap Vol. 303, Issue 3, 1086-1094, December 2002
Animals were injected with intra muscular injection of dexamethasone at the dose rate of 10 mg/Kg body weight, to avoid immediate inflammation. Animals were anesthetized with ketamine (50 mg/kg IV) in combination with Dizepam.
Xylocaine (4%) was used for local anesthesia topically. A cannula attached to reservoir was inserted into the anterior chamber with the help of a 30 gauge needle to provide a hydrostatic pressure of 25 mmHg during injection of alpha-chymotrypsin. Then a second appropriately shaped 30 gauge needle was introduced near the pupil. Freshly prepared 150 units of alpha chymotrypsin prepared in 0.1 ml of sterile saline was irrigated through the cannula into the posterior chamber. Care was taken to prevent the contact of alpha chymotrypsin with corneal stroma. Both cannulas were carefully removed without significant loss of aqueous humor. Immediately after surgery the eye treated with Sofracort (Corticosteroid) to reduce the chances of fungal or microbial infection.
All the animals were kept under observation for 5 days and after these five days the intraocular pressure (IOP) was measured daily with a Schiontz type indentation tonometer using 5.5 gm weights and by compilation of readings the maximum period required to achieve a stable increase in IOP was determined. […] IOP was measured after 15 days for 3 consecutive days, every morning (at same time) to assure stable IOP.
All the animals were closely observed for the development of glaucoma. Thirty animals showing the symptoms of glaucoma and with the intra ocular pressure more than 30 mmHg were selected for the present investigation.
Compounds 2-acetylthioisosorbide-5-mononitrate and 2-[(R)-methylsulfinyl]isosorbide-5-mononitrate (0.05%) were administered to two different groups of rabbits at a concentration of 0.05% by weight [0.05g in 100 mL of saline serum] by 3 drops instillation. For comparative data, the compound Timolol (Timoftol®) widely used for the treatment of glaucoma, was also administered to another group of rabbits at a concentration of 0.5% by weight.
The intraocular pressure measurements are included in the table 2 in mm Hg taken at 0, 1 and 2 h after 3 drops instillation.

duodenum = test: Motor activity: spontaneous contractions recorded at duodenum, indomethacin-induced intestinal inflammation; format: in vivo; settings: spontaneous contractions recorded at duodenum per minute, mice, 30 mg/kg orally
Procedure: (§1) Intestinal inflammation were induced by administration of two subcutaneous injections of 7.5 mg/kg indomethacin, as previously described Porras M., Martin M T., Soler M. and Vergara P., “Intestinal motor disorders associated with cyclical bacterial overgrowth in a rat model of enteritis”. Am. J. Physiol. Gastrointest. Liver Physiol. […] Am. J. Physiol. Gastrointest. Liver Physiol. (2006), 290:G423-G430.
(§2) Once the intestinal inflammation has been induced, one group of mice were treated with 30 mg of the compound 2-acetylthioisosorbide-5-mononitrate per kg of body weight, being dissolved this compound in water and administered orally. For comparative data, the compound isosorbide-5-mononitrate (IS-5-MN), structurally similar to 2-acetylthioisosorbide-5-mononitrate, was also administered to another group of mice.
(§3) Studies of the route, magnitude, and time course of bacterial translocation in a model of systemic inflammation were achieved as describe in Arch Surg 126:33-37, 1991. Bacterial translocation was expressed as the number of positive cultures with respect to the total number of samples in each group and motor activity was measured as the contracting activity expressed as the total number of spontaneous contractions recorded at duodenum per minute.

Myeloperoxidase (MPO) = Myeloperoxidase (MPO) activity as inflammation index in homogenized tissue samples (ELISA), indomethacin-induced intestinal inflammation; format: in vivo, mice; settings: for MPO activity: homogenized tissue samples, mice, indomethacin-induced intestinal inflammation, 30 mg/kg orally
Procedure: as §1, §2
(§4) Myeloperoxidase (MPO) activity was measured as an inflammation index in homogenized tissue samples after centrifugation using a specific ELISA kit (HyCult biotechnology, Uden, The Netherlands). In addition, since the barrier function of the intestinal mucus is deteriorated when the epithelium is inflamed and, as a consequence, the exposed bacteria cross the membrane and enter in the blood current, bacterial translocation was measured by detection of viable enteric bacteria in mesenteric lymph nodes as described by [M Mainous M R., Tso P., Berg R. D. and Deitch E. A., Arch Surg (1991) 126:33-37] as additional measure of inflammation degree.

Enterococcus sp = test: Bacterial translocation (Enterococcus sp) in indomethacin-induced intestinal inflammation; format: in vivo; settings: number of positive cultures / total number of samples in group, mesenteric lymph nodes, mice, 30 mg/kg orally
Procedure: as §1
Once the intestinal inflammation has been induced, one group of mice were treated with 30 mg of the compound 2-acetylthioisosorbide-5-mononitrate per kg of body weight, being dissolved this compound in water and administered orally. […]
as §4, with “degree. […]” for “degree.”

E. coli = test: Bacterial translocation (E. coli) in indomethacin-induced intestinal inflammation; format: in vivo; settings: mice; for Bacterial translocation E. coli: number of positive cultures / total number of samples in group, mesenteric lymph nodes, 30 mg/kg orally
Procedure: as §1, §2, §4, §3

SMILES	intraocular pressure 0 hr [1]	reduction of intraocular pressure (in words) [1]	intraocular pressure 1 hr [1]	intraocular pressure 2 hr [1]	Contractions/min (duodenum)	reduction of MTO activity (in words) (Myeloperoxidase (MPO); compared to a structurally similar compound (IS-5-MN))	MPO activity (Myeloperoxidase (MPO))	Bacterial translocation Enterococcus sp (Enterococcus sp)	bacterial translocation (in words) (E. coli)	Bacterial translocation E. coli (E. coli)
C[S@@+]([O-])C1COC2C(O[N+](=O)[O-])COC21 (stereo partly drawn) [2-[(R)-methylsulfinyl]isosorbide-5-mononitrate]	33.87 ± 0.38 mm Hg	significantly reduce the intraocular pressure	23.51 ± 0.24 mm Hg	22.77 ± 0.19 mm Hg						
CC(=O)S[C@H]1CO[C@H]2[C@@H]1OC[C@H]2O[N+](=O)[O-] [2-acetylthioisosorbide-5-mononitrate, 2-acetylthio-isosorbide-5-mononitrate]	34.33 ± 0.68 mm Hg	significantly reduce the intraocular pressure	24.72 ± 0.47 mm Hg	23.86 ± 0.32 mm Hg	0.2 ± 0.1 Contractions/min	significant reduction	10 ± 2 ng/mL	1/6	also reduced	2/6
O=[N+]([O-])O[C@@H]1CO[C@H]2[C@@H]1OC[C@@H]2O [IS-5-MN, isosorbide-5-mononitrate, reference compound]					0.5 ± 0.1 Contractions/min		19 ± 4 ng/mL	3/6		3/6
CC(C)(C)NC[C@H](O)COc1nsnc1N1CCOCC1 [Timolol, reference compound]	34.45 ± 0.58 mm Hg		24.77 ± 0.26 mm Hg	24.54 ± 0.26 mm Hg						
